{"source": "ChEMBL document CHEMBL1201862", "about": "“PubChem BioAssay data set” (2004)", "assay_in_all_cases": "growth of human tumour cells (NCI), 48 h", "key": {"SNB-78": {"system": "SNB-78"}, "NCI-H522": {"system": "NCI-H522"}, "OVCAR-5": {"system": "OVCAR-5"}, "MOLT-4": {"system": "MOLT-4"}, "M14": {"system": "M14"}, "HL-60": {"system": "HL-60"}, "SF-295": {"system": "SF-295"}, "OVCAR-8": {"system": "OVCAR-8"}, "CCRF-CEM": {"system": "CCRF-CEM"}, "UACC-257": {"system": "UACC-257"}, "K562": {"system": "K562"}, "IGROV-1": {"system": "IGROV-1"}, "ACHN": {"system": "ACHN"}, "SR": {"system": "SR"}, "SK-OV-3": {"system": "SK-OV-3"}, "DMS-114": {"system": "DMS-114"}, "HCT-116": {"system": "HCT-116"}, "NCI-H23": {"system": "NCI-H23"}, "RXF 631": {"system": "RXF 631"}, "EKVX": {"system": "EKVX"}, "M19-MEL": {"system": "M19-MEL"}, "RXF 393": {"system": "RXF 393"}, "A498": {"system": "A498"}, "SK-MEL-28": {"system": "SK-MEL-28"}, "UACC-62": {"system": "UACC-62"}, "HOP-92": {"system": "HOP-92"}, "NCI-H226": {"system": "NCI-H226"}, "KM12": {"system": "KM12"}, "U-251": {"system": "U-251"}, "NCI-H460": {"system": "NCI-H460"}, "HOP-62": {"system": "HOP-62"}, "A549": {"system": "A549"}, "SNB-19": {"system": "SNB-19"}, "TK-10": {"system": "TK-10"}, "UO-31": {"system": "UO-31"}, "HT-29": {"system": "HT-29"}, "DMS-273": {"system": "DMS-273"}, "XF498": {"system": "XF498"}, "RPMI-8226": {"system": "RPMI-8226"}, "Malme-3M": {"system": "Malme-3M"}, "LOX IMVI": {"system": "LOX IMVI"}, "SW-620": {"system": "SW-620"}, "786-0": {"system": "786-0"}, "SN12C": {"system": "SN12C"}, "CAKI-1": {"system": "CAKI-1"}, "OVCAR-4": {"system": "OVCAR-4"}, "KM-20L2": {"system": "KM-20L2"}, "HCC 2998": {"system": "HCC 2998"}, "SF-539": {"system": "SF-539"}, "OVCAR-3": {"system": "OVCAR-3"}, "HOP-18": {"system": "HOP-18"}, "LXFL 529": {"system": "LXFL 529"}, "SK-MEL-2": {"system": "SK-MEL-2"}, "DLD-1": {"system": "DLD-1"}, "SK-MEL-5": {"system": "SK-MEL-5"}, "COLO 205": {"system": "COLO 205"}, "SNB-75": {"system": "SNB-75"}, "HCT-15": {"system": "HCT-15"}, "SF-268": {"system": "SF-268"}}, "note": "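How tested: cells in 96-well plates exposed to compound for 48 hours at five concentrations. At the GI50, growth is halved.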 Activity calls are given as the source filed them. No stated cut-off is given here; in the data, active = GI50 up to about 1.1 µM and inactive = higher.", "data": [{"smiles": "C[C@H]1C(=O)c2c(cc(O)c(C3OC(CO)C(O)C(O)C3O)c2O)OC1c1ccc(O)c(O)c1", "note": "(some centres not stated)", "values": [{"measurement": "GI50", "setting": "SNB-78", "value": "> 100 µM (inactive)"}, {"measurement": "GI50", "setting": "NCI-H522", "value": "> 100 µM (inactive)"}, {"measurement": "GI50", "setting": "OVCAR-5", "value": "> 100 µM (inactive)"}, {"measurement": "GI50", "setting": "MOLT-4", "value": "> 100 µM (inactive)"}, {"measurement": "GI50", "setting": "M14", "value": "> 100 µM (inactive)"}, {"measurement": "GI50", "setting": "HL-60", "value": "> 100 µM (inactive)"}, {"measurement": "GI50", "setting": "SF-295", "value": "> 100 µM (inactive)"}, {"measurement": "GI50", "setting": "OVCAR-8", "value": "> 100 µM (inactive)"}, {"measurement": "GI50", "setting": "CCRF-CEM", "value": "> 100 µM (inactive)"}, {"measurement": "GI50", "setting": "UACC-257", "value": "> 100 µM (inactive)"}, {"measurement": "GI50", "setting": "K562", "value": "> 10 µM (inactive)"}, {"measurement": "GI50", "setting": "IGROV-1", "value": "> 100 µM (inactive)"}, {"measurement": "GI50", "setting": "ACHN", "value": "> 100 µM (inactive)"}, {"measurement": "GI50", "setting": "SR", "value": "> 100 µM (inactive)"}, {"measurement": "GI50", "setting": "SK-OV-3", "value": "> 100 µM (inactive)"}, {"measurement": "GI50", "setting": "DMS-114", "value": "> 100 µM (inactive)"}, {"measurement": "GI50", "setting": "HCT-116", "value": "> 100 µM (inactive)"}, {"measurement": "GI50", "setting": "NCI-H23", "value": "> 100 µM (inactive)"}, {"measurement": "GI50", "setting": "RXF 631", "value": "> 100 µM (inactive)"}, {"measurement": "GI50", "setting": "EKVX", "value": "> 100 µM (inactive)"}, {"measurement": "GI50", "setting": "M19-MEL", "value": "> 100 µM (inactive)"}, {"measurement": "GI50", "setting": "RXF 393", "value": "> 100 µM (inactive)"}, {"measurement": "GI50", "setting": "A498", "value": "> 100 µM (inactive)"}, {"measurement": "GI50", "setting": "SK-MEL-28", "value": "> 100 µM (inactive)"}, {"measurement": "GI50", "setting": "UACC-62", "value": "> 100 µM (inactive)"}, {"measurement": "GI50", "setting": "HOP-92", "value": "> 100 µM (inactive)"}, {"measurement": "GI50", "setting": "NCI-H226", "value": "64.9 µM (inactive)"}, {"measurement": "GI50", "setting": "KM12", "value": "> 100 µM (inactive)"}, {"measurement": "GI50", "setting": "U-251", "value": "> 100 µM (inactive)"}, {"measurement": "GI50", "setting": "NCI-H460", "value": "> 100 µM (inactive)"}, {"measurement": "GI50", "setting": "HOP-62", "value": "> 100 µM (inactive)"}, {"measurement": "GI50", "setting": "A549", "value": "> 100 µM (inactive)"}, {"measurement": "GI50", "setting": "SNB-19", "value": "> 100 µM (inactive)"}, {"measurement": "GI50", "setting": "TK-10", "value": "> 100 µM (inactive)"}, {"measurement": "GI50", "setting": "UO-31", "value": "> 100 µM (inactive)"}, {"measurement": "GI50", "setting": "HT-29", "value": "> 100 µM (inactive)"}]}, {"smiles": "Cc1cccc(-c2nnc3s/c(=C\\c4ccc5c(c4)OCO5)c(=O)n23)c1", "values": [{"measurement": "GI50", "setting": "DMS-273", "value": "> 100 µM (inactive)"}, {"measurement": "GI50", "setting": "SNB-78", "value": "> 100 µM (inactive)"}, {"measurement": "GI50", "setting": "NCI-H522", "value": "> 100 µM (inactive)"}, {"measurement": "GI50", "setting": "OVCAR-5", "value": "> 100 µM (inactive)"}, {"measurement": "GI50", "setting": "XF498", "value": "> 100 µM (inactive)"}, {"measurement": "GI50", "setting": "MOLT-4", "value": "> 100 µM (inactive)"}, {"measurement": "GI50", "setting": "M14", "value": "> 100 µM (inactive)"}, {"measurement": "GI50", "setting": "HL-60", "value": "> 100 µM (inactive)"}, {"measurement": "GI50", "setting": "SF-295", "value": "> 100 µM (inactive)"}, {"measurement": "GI50", "setting": "OVCAR-8", "value": "> 100 µM (inactive)"}, {"measurement": "GI50", "setting": "CCRF-CEM", "value": "> 100 µM (inactive)"}, {"measurement": "GI50", "setting": "RPMI-8226", "value": "> 100 µM (inactive)"}, {"measurement": "GI50", "setting": "UACC-257", "value": "29.8 µM (inactive)"}, {"measurement": "GI50", "setting": "K562", "value": "> 100 µM (inactive)"}, {"measurement": "GI50", "setting": "Malme-3M", "value": "> 100 µM (inactive)"}, {"measurement": "GI50", "setting": "LOX IMVI", "value": "> 100 µM (inactive)"}, {"measurement": "GI50", "setting": "SW-620", "value": "> 100 µM (inactive)"}, {"measurement": "GI50", "setting": "IGROV-1", "value": "> 100 µM (inactive)"}, {"measurement": "GI50", "setting": "ACHN", "value": "> 100 µM (inactive)"}, {"measurement": "GI50", "setting": "786-0", "value": "> 100 µM (inactive)"}, {"measurement": "GI50", "setting": "SK-OV-3", "value": "> 100 µM (inactive)"}, {"measurement": "GI50", "setting": "DMS-114", "value": "> 100 µM (inactive)"}, {"measurement": "GI50", "setting": "HCT-116", "value": "> 100 µM (inactive)"}, {"measurement": "GI50", "setting": "SN12C", "value": "> 100 µM (inactive)"}, {"measurement": "GI50", "setting": "NCI-H23", "value": "> 100 µM (inactive)"}, {"measurement": "GI50", "setting": "CAKI-1", "value": "> 100 µM (inactive)"}, {"measurement": "GI50", "setting": "OVCAR-4", "value": "> 100 µM (inactive)"}, {"measurement": "GI50", "setting": "KM-20L2", "value": "> 100 µM (inactive)"}, {"measurement": "GI50", "setting": "HCC 2998", "value": "> 100 µM (inactive)"}, {"measurement": "GI50", "setting": "EKVX", "value": "> 100 µM (inactive)"}, {"measurement": "GI50", "setting": "M19-MEL", "value": "> 100 µM (inactive)"}, {"measurement": "GI50", "setting": "RXF 393", "value": "> 100 µM (inactive)"}, {"measurement": "GI50", "setting": "A498", "value": "> 100 µM (inactive)"}, {"measurement": "GI50", "setting": "SK-MEL-28", "value": "> 100 µM (inactive)"}, {"measurement": "GI50", "setting": "UACC-62", "value": "> 100 µM (inactive)"}, {"measurement": "GI50", "setting": "HOP-92", "value": "> 100 µM (inactive)"}, {"measurement": "GI50", "setting": "SF-539", "value": "> 100 µM (inactive)"}, {"measurement": "GI50", "setting": "OVCAR-3", "value": "> 100 µM (inactive)"}, {"measurement": "GI50", "setting": "NCI-H226", "value": "> 100 µM (inactive)"}, {"measurement": "GI50", "setting": "HOP-18", "value": "> 100 µM (inactive)"}, {"measurement": "GI50", "setting": "KM12", "value": "> 100 µM (inactive)"}, {"measurement": "GI50", "setting": "LXFL 529", "value": "> 100 µM (inactive)"}, {"measurement": "GI50", "setting": "U-251", "value": "> 100 µM (inactive)"}, {"measurement": "GI50", "setting": "SK-MEL-2", "value": "> 100 µM (inactive)"}, {"measurement": "GI50", "setting": "NCI-H460", "value": "> 100 µM (inactive)"}, {"measurement": "GI50", "setting": "DLD-1", "value": "> 100 µM (inactive)"}, {"measurement": "GI50", "setting": "HOP-62", "value": "> 100 µM (inactive)"}, {"measurement": "GI50", "setting": "A549", "value": "> 100 µM (inactive)"}, {"measurement": "GI50", "setting": "SNB-19", "value": "> 100 µM (inactive)"}, {"measurement": "GI50", "setting": "TK-10", "value": "> 100 µM (inactive)"}, {"measurement": "GI50", "setting": "SK-MEL-5", "value": "> 100 µM (inactive)"}, {"measurement": "GI50", "setting": "UO-31", "value": "> 100 µM (inactive)"}, {"measurement": "GI50", "setting": "COLO 205", "value": "> 100 µM (inactive)"}, {"measurement": "GI50", "setting": "SNB-75", "value": "26.9 µM (inactive)"}, {"measurement": "GI50", "setting": "HCT-15", "value": "> 100", "unit": "µM"}, {"measurement": "GI50", "setting": "SF-268", "value": "> 100 µM (inactive)"}]}]}
